Key:
Type in all cases: cell-based, human
[1] = test system: CAPAN1 cells initially treated with CAR-MUC1 T cells; assay: 72 hr co-culture of decitabine-treated resistant CAPAN1 cells with CAR-MUC1 T cells; settings: 1 μM for 4 days, then 72 hr co-culture, E:T 5:1
Source text: Data is reported as the mean±SD; n=4. (b) To determine whether decitabine exposure would upregulate MUC1 expression in this resistant population we evaluated antigen expression, by flow, on CAR-resistant cells (grey histogram) and those cultured in decitabine (black histogram). To next assess whether decitabine treatment resensitized CAPAN1 cells to CAR-MUC1 T cells we performed a 72-hr co-culture experiment using CAPAN1 cells initially treated with CAR-MUC1 T cells (c) then either left untreated or cultured with decitabine as targets (E:T 5:1). After 72-hours retreatment with CAR-MUC1 T cells, residual tumor cells were again quantified by flow. Data is reported as the mean±SD; n=2.
CAPAN1, 293T, 293T-MUC1-mOrange or 293T-PSCA-GFP, were used as targets. Briefly, GFP/CAPAN1 cells were mixed with either OKT3/CD28 blasts or CAR-modified T cells at a 1:5 ratio in the presence of IL2 (50 U/ml) in complete media. For our engineered tumor model, 293T-MUC1-mOrange and 293T-PSCA-GFP (or control 293T cells alone) were mixed at 1:1 ratio then OKT3/CD28 blasts or CAR-modified T cells were added to the mixture; 10:1 (T cells:tumor cell), in the presence of IL2 (50 U/ml) in complete media. After 72 hours all residual cells were collected, counted, stained and then analyzed by flow cytometry (Gallios; Beckman Coulter Inc., Brea, Calif.). […]

[2] = test system: CAR-MUC1 expression on effector T cells; assay: CAR expression on modified T cells cultured with decitabine; settings: after one day and several days
Description: T cells were analyzed 3-4 weeks after the generation of the culture by surface-stained with monoclonal antibodies to: CD3, CD4, CD8, CD19, CD56, CD27, CD28, CD45RO, and CD62L (Becton Dickinson B D, Franklin Lakes, N.J.). Cells were washed once with PBS supplemented with 2% FBS, pelleted, and antibodies added in saturating amounts (10 ul). To detect CAR-transduced cells, T cells were stained with a monoclonal antibody Fc-specific cyanine-Cy5-conjugated antibody (Jackson Immuno Research Laboratories, Inc., West Grove, Pa.), which recognizes the IgG1-CH2CH3 component of the receptor. Cells were analyzed using a Gallios Flow cytometer and the data analyzed using Kaluza software (Beckman Coulter Inc., Brea, Calif.).
It is illustrated therein that one can modulate the intensity of CAR-MUC1 expression on effector cells when the effector cells are cultured with decitabine.

[3] = test system: MUC1 expression on CAR-MUC1-resistant CAPAN1 cells; assay: MUC1 antigen expression by flow after decitabine treatment; settings: 1 μM, after 4 days of treatment; 3.5 before exposure
Description: One million CAPAN1 cells were fixed with 80% methanol and washed with 0.1% tween-PBS. 1 ug of anti-MUC1 antibody (Abcam Inc, Cambridge, Mass.) was added and incubated at RT for 30 mins. Then cultures were washed and incubated with 0.4 ug of a goat anti-mouse IgG APC antibody (BD Pharmingen, San Jose, Calif.) for 20 mins at 4° C. in the dark. Cells were then washed twice and analyzed.
CAPAN1 cells were culture in a T175 flask using complete IMDM media contained 1 μM 5-Aza-2′-deoxycytidine-decitabine-(Sigma-aldrich Inc., Saint Louis, Mo.) for 4 days, with fresh media+decitabine replenished daily. Subsequently, decitabine-treated CAPAN1 cells were rested for 2 days in complete IMDM, and then co-cultured with CAR-MUC1 T cells.
Finally, to determine whether CAR-T cell potency could be improved by combination with conventional epigenetic modulators, which can increase TAA expression by demethylating DNA, CAPAN1 cells were cultured that had been previously treated with CAR-MUC1 T cells and consequently expressed only low levels of the target antigen, with 1 μM of decitabine, a hypomethylating agent.

Structure (SMILES): Nc1ncn([C@H]2C[C@H](O)[C@@H](CO)O2)c(=O)n1 [decitabine, 5-Aza-2′-deoxycytidine]
- re-sensitization of resistant tumor cells to CAR-MUC1 T cell killing [1]: re-sensitizing previously resistant tumor cells to CAR-MUC1 T cell killing
- CAR-MUC1 expression on effector cells [2]: increase in expression
- intensity of MUC1 expression [3]: 26.0 relative mean fluorescence intensity
